Reference: patent publication US8333970B2, “Methods of monitoring the efficacy of anti-CD40 antibodies in treating a subject having an inflammatory or autoimmune disease” (Novartis AG, priority 2005, dated 2012)
Entries after “also recorded” stand apart in the source; their conditions may differ.

Key:
normal human B cells [1] = test: Western blot of survival and signaling markers, rhsCD40L-stimulated B cells (Example 5, FIG. 1); assay type: cell-based
Text: Cells were lysed and whole cell lysates resolved by SDS-PAGE and Western blotting using antibodies specific to human cPARP, Mcl-1, Bcl-xl, p-Akt, and p-p38 MAPK. All membranes were stripped and re-probed for either β-actin or total Akt or p38 MAPK protein, as appropriate.

cell-surface CD40 = cell-surface CD40 (Homo sapiens, UniProt P25942); test: Flow cytometric (FACS) assay of CD40 binding and CD40-ligand blocking
Text: (§1) 2, 2000, and PCT International Application No. PCT/US01/30857, also titled “Human Anti-CD40 Antibodies,” filed Oct. 2, 2001, both of which are herein incorporated by reference in their entirety.

[2] = test system: B cells from normal human subjects; test: In vitro proliferation of normal human B cells / lymphocytes; assay type: cell-based
Text: as §1
(§2) 4, 2003, Nov. 26, 2003, and Apr. 27, 2004, and assigned U.S. Patent Application Nos. 60/517,337 , 60/525,579, and 60/565,710, respectively, and International Patent Application No. PCT/US2004/037152, also entitled “Antagonist Anti-CD40 Monoclonal Antibodies and Methods for Their Use,” filed Nov. 4, 2004; the contents of each of which are herein incorporated by reference in their entirety.

[3] = biological target: T1, CD40-TRAF2/3 signaling complex (Homo sapiens, UniProt P25942); test: CD40 immunoprecipitation, TRAF2/TRAF3 Western blot; assay type: cell-based; conditions: 1 μg/ml sCD40L, 20 minutes
T1 construct: normal human B cells from healthy donors; endogenous in cells; host or cells: normal human B cells from healthy donors
Experimental: In these experiments, 4.0×10^6 normal human B cells from healthy donors (percent purity between 85-95%) were serum starved for four hours in 1% FBS-containing media and stimulated with 1 μg/ml sCD40L (Alexis Corporation, Bingham, Nottinghamshire, UK) for 20 minutes. Cells were collected at 0 and 20 minutes. CD40 was immunoprecipitated using polyclonal anti-CD40 (Santa Cruz Biotechnology, CA), and was probed in a Western blot with anti-TRAF2 mAb (Santa Cruz Biotechnology, CA), anti-TRAF3 mAb (Santa Cruz Biotechnology, CA), and anti-CD40 mAb (Santa Cruz Biotechnology, CA).

normal human B cells [4] = test: Western blot of phosphorylated signaling proteins in sCD40L-stimulated B cells; assay type: cell-based; conditions: 1 μg/ml sCD40L, 20 minutes
Experimental: In these experiments, 1.0×10^6 normal human B cells from healthy donors (percent purity between 85-95%) were stimulated with 1 μg/ml sCD40L (Alexis Corporation, Bingham, Nottinghamshire, UK). […] Cells were collected at 0 and 20 minutes. Phosphorylated IKKα (Ser180) and IKKβ (Ser 181) and total IKKβ controls were detected in cell lysates by Western blot.
(§3) In these experiments, 1.0×10^6 normal human B cells from healthy donors (percent purity between 85-95%) were serum starved in 1% FBS-containing media and stimulated with 1 μg/ml sCD40L (Alexis Corporation, Bingham, Nottinghamshire, UK). […] Cells were collected at 0 and 20 minutes. Phospho-IKKα, phospho-IKKβ, total IKKβ, phospho-ERK, total ERK, phospho-AKT, total AKT, phospho-p38, and total p38 were detected in cell lysates by Western blot.
as §3, with “Phospho-ERK,” for “Phospho-IKKα, phospho-IKKβ, total IKKβ, phospho-ERK, total ERK,”, “phospho-IKKα/β,” for “phospho-p38,”, “[…]” for “total p38”

normal human B cells [5] = test: Western blot of apoptosis and survival proteins in sCD40L-stimulated B cells; assay type: cell-based
Experimental: (§4) In these experiments, 0.6×10^6 normal human B cells from healthy donors (percent purity between 85-95%) were stimulated with 1 μg/ml sCD40L (Alexis Corporation, Bingham, Nottinghamshire, UK). […] Cells were collected at 0, 20 minutes, 2 hours, 6 hours, 18 hours, and 26 hours. Cleaved Caspase-9, cleaved Caspase-3, cleaved PARP, and β-actin controls were detected in cell lysates by Western blot.
as §4, with “Mcl-1, XIAP, CD40,” for “Cleaved Caspase-9, cleaved Caspase-3, cleaved PARP,”
as §4, with “percent” for “(percent”, “24” for “0, 20 minutes, 2 hours, 6 hours, 18 hours, and 26”, “Cleaved” for “Cleaved Caspase-9, cleaved Caspase-3, cleaved”
as §4, with “22” for “0, 20 minutes, 2 hours, 6 hours, 18 hours, and 26”, “Mcl-1, XIAP,” for “Cleaved Caspase-9, cleaved Caspase-3,”

[6] = test system: primary cancer cells from NHL patients; test: ADCC on primary cancer cells; assay type: cell-based, human; conditions: in vitro
Text: as §2

[7] = test system: CD40-expressing target cells; test: Antibody dependent cellular cytotoxicity (ADCC); assay type: cell-based; conditions: native antibodies
Text: as §1
Clones from 7 other hybridomas were identified as having antagonistic activity. Based on their relative antagonistic potency and ADCC activities, two hybridoma clones were selected for further evaluation (Table 1 below). They are named 131.2F8.5.9 (5.9) and 153.8E2.D10.D6.12.12 (12.12).

normal human B cells [8] = test: Western blot of XIAP and cleaved PARP without sCD40L stimulation; assay type: cell-based; conditions: 10 μg/ml antibody, no sCD40L, 0 to 16 hours
Experimental: Cells were collected at 0, 4, 14, and 16 hours. XIAP, cleaved PARP, and β-actin controls were detected in cell lysates by Western blot.

[9] = test system: pre-clinical tumor models; test: Pre-clinical tumor models; assay type: in vivo
monocytes = test: CD40L-induced production of VEGF; assay type: cell-based
Text: In another experiment, CD40L-induced production of VEGF in monocytes is examined in a manner similar to that described above.

[10] = 2 μg/ml rhsCD40L, 10 μg/ml antibody, 24 hr
[11] = 1 μg/ml sCD40L, 10 μg/ml antibody, 0 to 26 hours
[12] = 1 μg/ml sCD40L, 0.5, 2 and 10 μg/ml antibody, 22 hours

Chain of cell-surface CD40 (P25942 21-277): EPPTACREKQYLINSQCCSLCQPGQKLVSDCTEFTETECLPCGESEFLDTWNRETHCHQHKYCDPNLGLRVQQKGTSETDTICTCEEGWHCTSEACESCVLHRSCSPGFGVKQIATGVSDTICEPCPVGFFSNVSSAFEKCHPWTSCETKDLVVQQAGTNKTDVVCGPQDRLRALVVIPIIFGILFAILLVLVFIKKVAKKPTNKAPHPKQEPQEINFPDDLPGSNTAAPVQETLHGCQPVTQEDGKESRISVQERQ
T1 sequence (P25942 21-277, one chain of several): as the sequence (P25942 21-277) above

## CHIR-12.12: fully human anti-CD40 monoclonal antibody of the IgG1 isotype, hybridoma 153.8E2.D10.D6.12.12, ATCC PTA-5543, SEQ ID NO:2 and 4
Normal human B cells [1]; [10]
  expression of anti-apoptotic proteins Mcl-1 and Bcl-xl: inhibited the expression of the anti-apoptotic proteins Mcl-1 and Bcl-xl
  phosphorylation of Akt and p38 MAPK: inhibiting the phosphorylation of the downstream signaling proteins
Normal human B cells [1]; FIG. 1
  CD40L-induced signaling and survival of normal human B cells: blocked
cell-surface CD40; FACS analysis
  specific binding to human CD40: bind specifically to human CD40
cell-surface CD40; flow cytometric assays
  displacement of CD40-ligand pre-bound to cell surface CD40: displace the pre-bound CD40-ligand; also recorded: can compete off CD40-ligand pre-bound to cell surface CD40
  prevention of CD40-ligand binding to cell-surface CD40: prevent the binding of CD40-ligand to cell-surface CD40; also recorded: can prevent CD40-ligand binding
[2]; human peripheral blood lymphocytes
  CD40L-induced lymphocyte proliferation: inhibits CD40L-induced lymphocyte proliferation
[2]; in vitro
  effect on CD40 ligand-mediated proliferation of normal B cells: act as antagonist anti-CD40 antibodies; also recorded: inhibit in vitro CD40 ligand-mediated proliferation of normal B cells
[2]; lymphocytes from normal subjects, antibody alone
  induction of proliferation of human lymphocytes (agonist activity): do not induce strong proliferation; also recorded: does not induce the proliferation of human peripheral blood lymphocytes
[3]
  CD40 expression: no changes in CD40 expression
  formation of the CD40-TRAF2/3 signaling complex: abrogated formation of the CD40-TRAF2/3 signaling complex
Normal human B cells [4]; 10 μg/ml antibody
  phosphorylation of IKKα (Ser180) and IKKβ (Ser 181): abrogated this response to sCD40L stimulation
Normal human B cells [4]; serum starved, 1 and 10 μg/ml antibody
  IKKα/β, ERK, AKT and p38 phosphorylation: inhibited phosphorylation; also recorded: abrogated the effects of sCD40L stimulation on these signaling pathways
Normal human B cells [4]; serum starved
  phospho-ERK, phospho-AKT, phospho-IKKα/β, compared with PI3K/AKT and MEK inhibitors: abrogated the phosphorylation of all of these signal transduction molecules
Normal human B cells [5]; [11]
  cleaved Caspase-9, cleaved Caspase-3, cleaved PARP: increased cleavage of Caspase-9, Caspase-3, and PARP; also recorded: resulted in an increase of these cleavage products
  expression of Mcl-1 and XIAP over time: reduction of XIAP and Mcl-1; also recorded: resulted in a decrease in expression of these proteins
Normal human B cells [5]; 1 μg/ml sCD40L, 0.01-1.0 μg/ml antibody, 24 hours
  PARP cleavage: increase of PARP cleavage in sCD40L stimulated cells in a dose-dependent manner
Normal human B cells [5]; [12]
  Mcl-1 and XIAP expression: reduced Mcl-1 and XIAP expression
  cleaved PARP expression: increased cleaved PARP expression
[6]
  killing of primary cancer cells by ADCC: kill primary cancer cells from NHL patients by ADCC
[7]
  ADCC activity, killing of CD40-expressing target cells: have ADCC activity; also recorded: able to kill CD40-expressing target cells
Normal human B cells [8]
  apoptosis (cleaved PARP, XIAP) without sCD40L stimulation: did not trigger these apoptotic effects; also recorded: does not trigger apoptosis in normal human B cells without CD40L stimulation
[9]
  anti-tumor potency compared with rituximab: more potent anti-tumor antibody than is rituximab
monocytes
  CD40L-induced production of VEGF: inhibit CD40L-induced production of VEGF
